This is an account of results in ChEMBL document CHEMBL3585266, “New matrix metalloproteinase inhibitors based on γ-fluorinated α-aminocarboxylic and α-aminohydroxamic acids” (Bioorg Med Chem, 2015).

Broadly, the IC50 is the concentration that inhibits the measured activity by half.

The target of assay [1] is 72 kDa type IV collagenase (Homo sapiens, UniProt P08253).
Description: Inhibition of human active MMP2 using (7-methoxycoumarin-4-yl) acetyl pro-Leu-Gly-Leu-[3-(2,4-dinitrophenyl)-L-2,3-diamino-propionyl]-Ala-Arg-NH2 fluorogenic substrate assessed as fluorescent product release
Assay [2] addresses Matrix metalloproteinase-9 (Homo sapiens, UniProt P14780). The experiment in a line: Inhibition of human active MMP9 using (7-methoxycoumarin-4-yl) acetyl pro-Leu-Gly-Leu-[3-(2,4-dinitrophenyl)-L-2,3-diamino-propionyl]-Ala-Arg-NH2 fluorogenic substrate assessed as fluorescent product release.

Sequence of 72 kDa type IV collagenase (P08253 whole entry): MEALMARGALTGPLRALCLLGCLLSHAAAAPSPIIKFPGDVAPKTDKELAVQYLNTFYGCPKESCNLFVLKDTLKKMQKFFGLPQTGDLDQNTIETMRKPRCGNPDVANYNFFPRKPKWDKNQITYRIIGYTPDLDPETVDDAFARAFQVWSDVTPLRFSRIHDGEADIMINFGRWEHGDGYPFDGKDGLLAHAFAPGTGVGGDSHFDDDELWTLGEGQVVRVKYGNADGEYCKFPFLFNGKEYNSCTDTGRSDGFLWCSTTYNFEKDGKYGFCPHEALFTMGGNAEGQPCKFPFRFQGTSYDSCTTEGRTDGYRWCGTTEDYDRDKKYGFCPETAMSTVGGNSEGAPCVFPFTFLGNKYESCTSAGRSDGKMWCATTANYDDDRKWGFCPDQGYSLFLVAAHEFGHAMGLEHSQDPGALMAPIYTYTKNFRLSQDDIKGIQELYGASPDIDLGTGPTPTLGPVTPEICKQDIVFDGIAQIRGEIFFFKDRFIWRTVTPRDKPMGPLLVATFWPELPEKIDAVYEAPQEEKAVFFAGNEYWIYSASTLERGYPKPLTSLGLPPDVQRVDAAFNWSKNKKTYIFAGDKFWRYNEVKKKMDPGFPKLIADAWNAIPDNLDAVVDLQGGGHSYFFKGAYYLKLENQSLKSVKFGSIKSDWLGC
Sequence of Matrix metalloproteinase-9 (P14780 whole entry): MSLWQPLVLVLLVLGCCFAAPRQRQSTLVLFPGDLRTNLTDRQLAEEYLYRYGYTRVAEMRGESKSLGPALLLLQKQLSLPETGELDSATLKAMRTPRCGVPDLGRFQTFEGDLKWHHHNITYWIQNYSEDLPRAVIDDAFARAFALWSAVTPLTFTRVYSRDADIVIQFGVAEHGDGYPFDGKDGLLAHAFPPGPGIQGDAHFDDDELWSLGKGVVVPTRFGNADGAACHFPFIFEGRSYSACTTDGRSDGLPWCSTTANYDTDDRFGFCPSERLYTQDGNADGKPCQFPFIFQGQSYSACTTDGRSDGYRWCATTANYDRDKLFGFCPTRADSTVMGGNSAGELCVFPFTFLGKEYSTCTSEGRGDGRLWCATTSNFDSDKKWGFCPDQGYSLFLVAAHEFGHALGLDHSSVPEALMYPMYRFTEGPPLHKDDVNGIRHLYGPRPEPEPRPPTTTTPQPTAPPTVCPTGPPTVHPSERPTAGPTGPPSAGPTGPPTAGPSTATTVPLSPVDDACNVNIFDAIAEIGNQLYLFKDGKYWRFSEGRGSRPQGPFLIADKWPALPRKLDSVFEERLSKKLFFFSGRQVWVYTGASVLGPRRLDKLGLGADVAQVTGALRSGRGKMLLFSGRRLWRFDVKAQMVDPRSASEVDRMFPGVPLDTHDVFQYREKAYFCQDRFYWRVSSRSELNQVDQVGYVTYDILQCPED

For the compound `CC[C@H](C(=O)NO)N(Cc1cccnc1)S(=O)(=O)c1ccc(OC)cc1`, the IC50 in assay [1] worked out at 2 nM; in assay [2] it was 4.6 nM.
On to `COc1ccc(S(=O)(=O)N(Cc2cccnc2)[C@@H](CCF)C(=O)O)cc1`, for which the figures for the IC50 in assay [1] and in assay [2] were 34700 nM and over 100000 nM, respectively.
On the same counts, the results for `C=CC[C@@H](C(=O)NO)N(Cc1cccnc1)S(=O)(=O)c1ccc(OC)cc1` are 6.3 nM and 6.4 nM.
In the same order, the values of `COc1ccc(S(=O)(=O)N(Cc2cccnc2)[C@H](CCF)C(=O)O)cc1` are over 100000 nM and over 100000 nM.
In the same order, the values of `C=CC[C@@H](C(=O)O)N(Cc1cccnc1)S(=O)(=O)c1ccc(OC)cc1` are over 100000 nM and over 100000 nM.
For `CC[C@H](C(=O)O)N(Cc1cccnc1)S(=O)(=O)c1ccc(OC)cc1`, the IC50 in assay [1] came to 10300 nM; in assay [2], 8800 nM.
On the same counts, the results for `C=CC[C@H](C(=O)O)N(Cc1cccnc1)S(=O)(=O)c1ccc(OC)cc1` are 2100 nM and 1700 nM.
In the same order, the values of `CC[C@@H](C(=O)NO)N(Cc1cccnc1)S(=O)(=O)c1ccc(OC)cc1` are 1400 nM and 700 nM.
In the same order, the values of `C=C(F)C[C@H](C(=O)O)N(Cc1cccnc1)S(=O)(=O)c1ccc(OC)cc1` are 35700 nM and over 100000 nM.
Take `C=C(F)C[C@@H](C(=O)NO)N(Cc1cccnc1)S(=O)(=O)c1ccc(OC)cc1`: the IC50 in assay [1] stood at 7.2 nM; in assay [2] it was 4.9 nM.
Take `C=C(F)C[C@@H](C(=O)O)N(Cc1cccnc1)S(=O)(=O)c1ccc(OC)cc1`: the IC50 in assay [1] and in assay [2] was over 100000 nM each time.
Regarding `C=C(F)C[C@H](C(=O)NO)N(Cc1cccnc1)S(=O)(=O)c1ccc(OC)cc1`, the values for the IC50 in assay [1] and in assay [2] were 9.3 nM and 8.3 nM, respectively.
On the same counts, the results for `CC[C@@H](C(=O)O)N(Cc1cccnc1)S(=O)(=O)c1ccc(OC)cc1` are over 100000 nM and over 100000 nM.
On the same counts, the results for `COc1ccc(S(=O)(=O)N(Cc2cccnc2)[C@H](CCF)C(=O)NO)cc1` are 6.4 nM and 12.3 nM.
Consider `C=CC[C@H](C(=O)NO)N(Cc1cccnc1)S(=O)(=O)c1ccc(OC)cc1`, for which the IC50 is 3.9 nM in assay [1] and 0.54 nM in assay [2].
